Source: BigSolDB 2.1

Structure (SMILES): NC(=O)c1cnccn1
- solubility (mole fraction) (in 1,4-dioxane, 293.15 K): 0.0072
- solubility (mole fraction) (in 1,4-dioxane, 303.15 K): 0.0107
- solubility (mole fraction) (in 1,4-dioxane, 313.15 K): 0.0138
- solubility (mole fraction) (in 1,4-dioxane, 323.15 K): 0.0202
- solubility (mole fraction) (in 1,4-dioxane, 333.15 K): 0.0285
- solubility (mole fraction) (in acetone, 283.15 K): 0.00244
- solubility (mole fraction) (in acetone, 293.15 K): 0.00386
- solubility (mole fraction) (in acetone, 303.15 K): 0.00583
- solubility (mole fraction) (in acetone, 313.15 K): 0.00768
- solubility (mole fraction) (in acetone, 323.15 K): 0.0116
- solubility (mole fraction) (in methanol, 283.15 K): 0.00268
- solubility (mole fraction) (in methanol, 293.15 K): 0.00398
- solubility (mole fraction) (in methanol, 303.15 K): 0.00586
- solubility (mole fraction) (in methanol, 313.15 K): 0.0086
- solubility (mole fraction) (in methanol, 323.15 K): 0.0122
